Test results published in US20050118226A1, “Methods for treating ACAT-related diseases” (priority 2003, published 2005).

System: endogenous APP
Experiment: Western blot of endogenous APP processing in brains of non-transgenic littermates
Format: in vivo, mouse
Method: For Western blot analyses, frozen hemispheres of non-transgenic littermates were homogenized in TBS buffer containing 5 mM EDTA, 1 mM 1,10-phenanthroline (ICN Biomedicals), 20 μM ALLN (BioMol) and a protease inhibitor mixture (Roche). Homogenates were centrifuged at 100000 g for 1 hour at +4° C. The supernatants were used for analyses of secreted APP forms and ApoE, while the pellets extracted with the homogenization buffer containing 1% Triton X-100 and 0.2% SDS. 120 μg of total protein were resolved on 4-12% or 12% NuPAGE Bis-Tris gels (Invitrogen) under reducing conditions, and Western blots were performed as described previously (Puglielli et al., 2001). For analysis of Notch-ICD (NICD), 250 μg of total protein was immunoprecipitated with an NICD-specific antibody (cleavage site (Val1744)-specific; Cell Signaling Technology) according to manufacturer's recommendations. Antibodies used for Western blots were R1736 (specific for sAPP-α; a gift from Dr. D. J. Selkoe, Brigham and Women's Hospital, Boston, Mass.), Abl4 (PS 1-NTF; a gift from Dr. S. E. Gandy, Thomas Jefferson University, Philadelphia, Pa.), Pen2 (a gift from Dr. S. S. Sisodia, University of Chicago, Chicago, Ill.), N-Cadherin (C32, C-terminal; BD Transduction Laboratories), ApoE (Santa Cruz Biotechnology), β-tubulin (Sigma), BACE1 and Nicastrin (Affinity BioReagents). Rbt×APP (CTF), 22C11 (APP-NTF) and Rbt×PSI (PS 1-CTF) were from Chemicon International. BACE stainings (N-terminal; Affinity BioReagents) were confirmed with two additional antibodies; Ms×BACE1 (Chemicon International) and BACE (C-terminal; Affinity BioReagents). Densitometric analyses were performed using the QuantityOne software package (Bio-Rad). Statistical significance was determined by Student's t test. For Western blot analyses shown in supplemental figures, neutralized formic acid fractions (approximately 100 μg of total protein) were precipitated by adding 50% trichloroacetic acid to 15.5% final concentration. After 30 min incubation and centrifugation at 4° C., the pellets were solubilized by adding 10 μl of 2M Tris base and 10 μl of 4×LDS-PAGE loading buffer (NuPage, Invitrogen). Before loading, the samples were incubated for 30 min at 37° C., freeze-thawed once and boiled. Western blot analysis was performed as described above.
Our previous cell-based studies have shown that ACAT inhibition reduces Aβ generation and alters APP processing by all three secretases (Puglielli et al., 2001). To determine whether CP-113,818 treatment modified brain APP processing in hAPP mice, we initially resolved formic acid-extracted brain proteins by SDS-PAGE to detect APP and its proteolytic derivatives. […]

## CCCCCCCC[C@H](SCCCCCC)C(=O)Nc1c(SC)cc(C)nc1SC [CP-113,818]
  decrease in the ratio between total sAPP and sAPPα: 36%
Brain lysates, normalized to APP holoprotein, vs placebo
  decrease of endogenous mouse APP-CTF levels: 44%
Soluble TBS fraction
  reduction of total sAPP: 19.1%
Soluble TBS fraction, trend, n.s.
  decrease of sAPPα: 3.4%
